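1) Cells in 96-well plates. 2) Compound, 48 h, 5 concentrations. 3) Linear interpolation between surrounding doses. 4) Unreached endpoint = highest concentration. GI50 = concentration required for 50% inhibition of growth.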 Activity calls are given as the source filed them. No stated cut-off is given here; in the data, active = GI50 up to about 1.1 µM and inactive = higher. Some results are limits rather than exact numbers.

Among the test systems are A498; ACHN; COLO 205; HCT-15; HOP-92; K562; MOLT-4; NCI-H460; NCI-H522; OVCAR-5; SF-268; SF-295; SK-OV-3; SN12C; SNB-19; U-251; SR.
Holding throughout (assay): growth of human tumour cells (NCI), 48 h

Turning to `Cc1nn(C)c(=S)n(C)c1=O`, the GI50 with A498 was 3.22 µM (inactive); in the assay on ACHN, 0.387 µM (active); in the assay with COLO 205, 4.16 µM (inactive); in the assay on HCT-15 it was 3.76 µM; with HOP-92, 0.291 µM (active); with K562, 0.343 µM (active). For the same compound, the GI50 with MOLT-4 is 1.29 µM (inactive); with NCI-H460 it was 0.394 µM (active); in the assay on NCI-H522, 0.275 µM (active); in the assay on OVCAR-5 it was 2.26 µM (inactive); with SF-268, 0.56 µM (active); in the assay on SF-295, 0.571 µM (active). In addition, the GI50 with SK-OV-3 is 14.7 µM (inactive); in the assay on SN12C, 0.927 µM (active); with SNB-19 it was 0.802 µM (active); in the assay with U-251, 1.75 µM (inactive).
For `C/C(CC(=O)Nc1ccc(Cl)cc1)=N\NC(N)=S`, the GI50 in the assay on A498 was > 100 µM (inactive); in the assay on ACHN, 9.14 µM (inactive); in the assay with COLO 205, 23.3 µM (inactive); in the assay with HOP-92 it was > 100 µM (inactive); with K562 it was 5.43 µM (inactive); with MOLT-4, 45.3 µM (inactive). Moreover, the GI50 with NCI-H460 is 45.5 µM (inactive); with NCI-H522, 47.2 µM (inactive); in the assay with OVCAR-5, > 100 µM (inactive); with SF-268 it was 54 µM (inactive); in the assay on SF-295, 29 µM (inactive); in the assay with SK-OV-3 it was > 100 µM (inactive). In addition, in the assay on U-251, the GI50 is > 100 µM (inactive).
On to `O=C(O)CCC1(Br)CCCCC(Br)C1=O` (configuration not stated), for which the GI50 was > 100 µM (inactive) in the assay on A498; > 100 µM (inactive) in the assay with ACHN; > 100 µM (inactive) with COLO 205; > 100 µM in the assay with HCT-15; 32.7 µM (inactive) in the assay on HOP-92; > 100 µM (inactive) in the assay on K562. The GI50 with MOLT-4, in the assay on NCI-H460, in the assay on NCI-H522, in the assay on OVCAR-5, in the assay with SF-268 and with SF-295 was > 100 µM (inactive) throughout. In addition, the GI50 with SK-OV-3, in the assay with SN12C, with SNB-19 and in the assay with U-251 was > 100 µM (inactive) throughout.
With `C[C@]12Cc3conc3C(O)=C1CC[C@@H]1C2CC[C@@]2(C)C1CC[C@@H]2O` (some centres not stated), the GI50 in the assay with A498 was 9.12 µM (inactive); in the assay on ACHN, 23.3 µM (inactive); with COLO 205, 32.7 µM (inactive); with HCT-15 it was 5.65 µM; in the assay with HOP-92 it was 22.8 µM (inactive); in the assay on K562 it was 3.66 µM (inactive). The GI50 is 6.68 µM (inactive) in the assay on MOLT-4; 12.6 µM (inactive) in the assay on NCI-H460; 2.95 µM (inactive) in the assay on NCI-H522; 50.2 µM (inactive) with OVCAR-5; 14.6 µM (inactive) in the assay on SF-268; 18 µM (inactive) in the assay with SF-295. The GI50 was 31.3 µM (inactive) in the assay with SK-OV-3, 28.9 µM (inactive) in the assay with SN12C, 31.4 µM (inactive) in the assay on SNB-19 and 20 µM (inactive) in the assay with U-251.
Turning to `CC1(c2cccc3ccccc23)OC(=O)c2ccccc21` (configuration not stated), the GI50 in the assay on A498 was 21.5 µM (inactive); in the assay with ACHN, 20.3 µM (inactive); in the assay on COLO 205, 16.2 µM (inactive); with HCT-15, 18.6 µM; with HOP-92, 13.5 µM (inactive); with K562, 12.8 µM (inactive). Besides, the GI50 is 15.1 µM (inactive) in the assay on MOLT-4; 21.1 µM (inactive) in the assay on NCI-H460; 25.2 µM (inactive) in the assay with NCI-H522; 57.1 µM (inactive) in the assay with OVCAR-5; 25.5 µM (inactive) with SF-268; 17.9 µM (inactive) in the assay on SF-295. Also, the GI50 is 32.5 µM (inactive) in the assay on SK-OV-3, 22 µM (inactive) in the assay with SN12C, 30.1 µM (inactive) with SNB-19 and 20 µM (inactive) in the assay with U-251.
As for `CC(=O)Oc1ccc2c(=O)c(C(C)=O)coc2c1`, the GI50 with A498 is 58.1 µM (inactive); with ACHN, > 100 µM (inactive); with COLO 205, > 100 µM (inactive); in the assay on HCT-15, > 100 µM; in the assay on HOP-92 it was 79.6 µM (inactive); with K562, > 100 µM (inactive). Besides, the GI50 in the assay with MOLT-4, in the assay on NCI-H460, in the assay on NCI-H522, with OVCAR-5, with SF-268 and in the assay on SF-295 was > 100 µM (inactive) throughout. For the same compound, the GI50 in the assay on SNB-19, with SR and in the assay with U-251 was > 100 µM (inactive) each time.
For `CCCCCCCCCCCCCc1nnn[nH]1`, the GI50 in the assay on A498 is 17 µM (inactive); with ACHN, 19.1 µM (inactive); with COLO 205 it was 19.4 µM (inactive); in the assay on HCT-15, 18.3 µM; with HOP-92, 15.6 µM (inactive); in the assay with NCI-H460, 20.6 µM (inactive). Further, the GI50 with NCI-H522 was 21.8 µM (inactive); in the assay with OVCAR-5, 18.5 µM (inactive); in the assay with SF-268, 19.6 µM (inactive); in the assay with SF-295 it was 19.2 µM (inactive); with SK-OV-3, 24.7 µM (inactive); in the assay with SN12C, 18.8 µM (inactive). Further, the GI50 with SNB-19 was 18.7 µM (inactive); in the assay on U-251 it was 18.2 µM (inactive).
In the case of `NCCn1cnc2nc(NC(=O)c3ccccc3)[nH]c(=O)c21`, the GI50 with A498 is > 100 µM (inactive); in the assay with ACHN it was > 100 µM (inactive); in the assay on COLO 205, > 100 µM (inactive); in the assay with HCT-15 it was > 100 µM; in the assay with HOP-92, > 100 µM (inactive); with K562, > 100 µM (inactive). The GI50 in the assay on MOLT-4, in the assay with NCI-H460, with OVCAR-5, with SF-268, with SF-295 and in the assay with SN12C was > 100 µM (inactive) in each case. Further, the GI50 in the assay with SNB-19, with SR and in the assay with U-251 was > 100 µM (inactive) each time.
Turning to `Cc1ccc(/C=N/C23CC4CC(CC(C4)C2)C3)cc1`, the GI50 with A498 is > 100 µM (inactive); in the assay on ACHN it was > 100 µM (inactive); in the assay on COLO 205 it was > 100 µM (inactive); in the assay on HCT-15, > 100 µM; with K562, > 100 µM (inactive); with MOLT-4, > 100 µM (inactive). Further, the GI50 with NCI-H460, in the assay on OVCAR-5, with SF-268, in the assay on SF-295, with SK-OV-3 and in the assay with SN12C was > 100 µM (inactive) throughout. Also, the GI50 in the assay on SR and in the assay on U-251 was > 100 µM (inactive) throughout.
For the compound `Cc1ccc(S(=O)(=O)c2ccc(N)cc2)cc1`, the GI50 is > 100 µM (inactive) in the assay with A498; > 100 µM (inactive) with ACHN; > 100 µM in the assay on HCT-15; > 100 µM (inactive) in the assay with K562; > 100 µM (inactive) in the assay with MOLT-4; > 100 µM (inactive) with NCI-H460. In addition, the GI50 in the assay on OVCAR-5, in the assay on SF-295, in the assay with SK-OV-3 and in the assay with U-251 was > 100 µM (inactive) in each case.
Turning to `O=C1C(=O)N(C2C3CC4CC(C3)CC2C4)C(=O)C(=O)C1c1nc2ccccc2o1` (configuration not stated), the GI50 is > 100 µM (inactive) in the assay with ACHN; 51.6 µM (inactive) in the assay with COLO 205; 43.6 µM in the assay with HCT-15; 61.1 µM (inactive) in the assay with HOP-92; 21.1 µM (inactive) in the assay with K562; > 100 µM (inactive) in the assay on NCI-H460. Further, the GI50 was 23.2 µM (inactive) in the assay on OVCAR-5; 92.9 µM (inactive) in the assay with SF-268; > 100 µM (inactive) with SF-295; > 100 µM (inactive) in the assay on SK-OV-3; 98.4 µM (inactive) in the assay on SN12C; > 100 µM (inactive) with SNB-19. For the same compound, the GI50 with U-251 was 23.1 µM (inactive).
For the compound `O=C(O)CCNS(=O)(=O)c1ccc2ccccc2c1`, the GI50 with A498 was > 100 µM (inactive); with ACHN, > 100 µM (inactive); in the assay on COLO 205 it was > 100 µM (inactive); in the assay on HCT-15 it was > 100 µM; with HOP-92, > 100 µM (inactive); in the assay on K562 it was > 100 µM (inactive). In addition, the GI50 in the assay on MOLT-4, with NCI-H460, with NCI-H522, with OVCAR-5, with SF-268 and in the assay on SF-295 was > 100 µM (inactive) each time. Further, the GI50 in the assay with SK-OV-3, in the assay with SN12C, in the assay with SNB-19 and in the assay with U-251 was > 100 µM (inactive) in each case.
`CCCCCCCCCCCOc1ccc(C(=O)C(=O)c2ccc(OCCCCCCCCCCC)c(OCCCCCCCCCCC)c2)cc1OCCCCCCCCCCC`: the GI50 was > 100 µM (inactive) in the assay on A498; > 100 µM (inactive) in the assay with ACHN; > 100 µM (inactive) in the assay with COLO 205; > 100 µM in the assay with HCT-15; > 100 µM (inactive) with K562; 80.7 µM (inactive) in the assay with MOLT-4. In addition, the GI50 in the assay on NCI-H460, in the assay on NCI-H522, with OVCAR-5, in the assay with SF-268, with SF-295 and in the assay with SK-OV-3 was > 100 µM (inactive) in each case. In addition, the GI50 with SN12C, in the assay with SNB-19 and with U-251 was > 100 µM (inactive) in each case.
Consider `CC(=O)Nc1ccc(C(=O)N2N=C(C)/C(=C/c3ccccc3O)C2=O)cc1`, for which the GI50 with ACHN is > 100 µM (inactive); in the assay on COLO 205 it was > 100 µM (inactive); in the assay on HCT-15 it was > 100 µM; with K562, > 100 µM (inactive); with MOLT-4 it was > 100 µM (inactive); in the assay with NCI-H460, > 100 µM (inactive). In addition, the GI50 in the assay with NCI-H522, in the assay on OVCAR-5, with SF-268, in the assay with SF-295, in the assay on SN12C and in the assay on SNB-19 was > 100 µM (inactive) throughout. Moreover, the GI50 in the assay with SR is > 100 µM (inactive).

The record behind these values is ChEMBL document CHEMBL1201862, “PubChem BioAssay data set” (2004).
